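Step 1: Grow cells in 96-well plates. Step 2: Expose to compound for 48 hours at 5 concentrations. Step 3: Interpolate endpoints linearly; if unreached, use highest concentration. GI50: concentration for 50% inhibition of growth.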 Calls of active or inactive are those of the source. Rule as the data show it: active = GI50 up to about 1.1 µM and inactive = higher.
Experiments:
Test in all cases: growth of human tumour cells (NCI), 48 h
SK-MEL-5 = system: SK-MEL-5
MOLT-4 = system: MOLT-4
COLO 205 = system: COLO 205
SF-268 = system: SF-268
Hs-578T = system: Hs-578T
ACHN = system: ACHN
NCI-H226 = system: NCI-H226
SR = system: SR
Malme-3M = system: Malme-3M
CCRF-CEM = system: CCRF-CEM
NCI-H460 = system: NCI-H460
786-0 = system: 786-0
PC-3 = system: PC-3
HCT-15 = system: HCT-15
OVCAR-8 = system: OVCAR-8
K562 = system: K562
IGROV-1 = system: IGROV-1
SK-MEL-28 = system: SK-MEL-28
A549 = system: A549
SNB-19 = system: SNB-19
EKVX = system: EKVX
HT-29 = system: HT-29
MDA-MB-435 = system: MDA-MB-435
RXF 393 = system: RXF 393
LOX IMVI = system: LOX IMVI
OVCAR-3 = system: OVCAR-3
NCI-H522 = system: NCI-H522
SNB-75 = system: SNB-75
SW-620 = system: SW-620
UO-31 = system: UO-31
SK-OV-3 = system: SK-OV-3
NCI/ADR-RES = system: NCI/ADR-RES
BT-549 = system: BT-549
OVCAR-4 = system: OVCAR-4
NCI-H23 = system: NCI-H23
SF-295 = system: SF-295
SN12C = system: SN12C
HCC 2998 = system: HCC 2998
T47D = system: T47D
UACC-257 = system: UACC-257
CAKI-1 = system: CAKI-1
UACC-62 = system: UACC-62
SF-539 = system: SF-539
HCT-116 = system: HCT-116
HOP-62 = system: HOP-62
MCF7 = system: MCF7
MDA-MB-231 = system: MDA-MB-231
HOP-92 = system: HOP-92
M14 = system: M14
OVCAR-5 = system: OVCAR-5
MDA-N = system: MDA-N
A498 = system: A498
U-251 = system: U-251
KM12 = system: KM12
TK-10 = system: TK-10
SK-MEL-2 = system: SK-MEL-2
RPMI-8226 = system: RPMI-8226
DU-145 = system: DU-145

How did the GI50 (SK-MEL-5) turn out when `CC(C)C(C/C=C1/CC(CO)(COC(=O)c2ccccc2)OC1=O)C(C)C` (configuration not stated) was run?
The GI50 was 8.45 µM (inactive).

What about the GI50 (MOLT-4) of the same compound?
The GI50 was 11.8 µM (inactive).

And the GI50 (COLO 205)?
The GI50 was 3.63 µM (inactive).

What about the GI50 (SF-268) of the same compound?
The GI50 was 16.8 µM (inactive).

What about the GI50 (Hs-578T) of the same compound?
The GI50 was 7.43 µM (inactive).

What about the GI50 (ACHN) of the same compound?
Its GI50 is 13.9 µM (inactive).

And the GI50 (NCI-H226)?
Its GI50 is 16 µM (inactive).

And the GI50 (SR)?
The GI50 was 30.6 µM (inactive).

What about the GI50 (Malme-3M) of the same compound?
Its GI50 is 12 µM (inactive).

And the GI50 (CCRF-CEM)?
The GI50 was 16.8 µM (inactive).

And the GI50 (NCI-H460)?
Its GI50 is 17 µM (inactive).

What about the GI50 (786-0) of the same compound?
The GI50 was 11 µM (inactive).

What about the GI50 (PC-3) of the same compound?
The GI50 was 13.6 µM (inactive).

And the GI50 (HCT-15)?
Its GI50 is 20 µM.

What about the GI50 (OVCAR-8) of the same compound?
Its GI50 is 22.4 µM (inactive).

And the GI50 (K562)?
The GI50 was 9.04 µM (inactive).

And the GI50 (IGROV-1)?
The GI50 was 20.2 µM (inactive).

And the GI50 (SK-MEL-28)?
The GI50 was 14.1 µM (inactive).

What about the GI50 (A549) of the same compound?
Its GI50 is 12.4 µM (inactive).

What about the GI50 (SNB-19) of the same compound?
Its GI50 is 16.7 µM (inactive).

And the GI50 (EKVX)?
The GI50 was 19.2 µM (inactive).

What about the GI50 (HT-29) of the same compound?
Its GI50 is 18.7 µM (inactive).

And the GI50 (MDA-MB-435)?
The GI50 was 26 µM (inactive).

And the GI50 (RXF 393)?
The GI50 was 16.7 µM (inactive).

What about the GI50 (LOX IMVI) of the same compound?
Its GI50 is 23.8 µM (inactive).

And the GI50 (OVCAR-3)?
Its GI50 is 17.5 µM (inactive).

And the GI50 (NCI-H522)?
The GI50 was 19.9 µM (inactive).

And the GI50 (SNB-75)?
Its GI50 is 7.5 µM (inactive).

And the GI50 (SW-620)?
The GI50 was 16.4 µM (inactive).

What about the GI50 (UO-31) of the same compound?
Its GI50 is 16.3 µM (inactive).

What about the GI50 (SK-OV-3) of the same compound?
The GI50 was 45.4 µM (inactive).

What about the GI50 (NCI/ADR-RES) of the same compound?
Its GI50 is 19.2 µM (inactive).

What about the GI50 (BT-549) of the same compound?
The GI50 was 18.3 µM (inactive).

And the GI50 (OVCAR-4)?
The GI50 was 15 µM (inactive).

What about the GI50 (NCI-H23) of the same compound?
Its GI50 is 18.1 µM (inactive).

And the GI50 (SF-295)?
The GI50 was 12.2 µM (inactive).

And the GI50 (SN12C)?
The GI50 was 15.5 µM (inactive).

And the GI50 (HCC 2998)?
The GI50 was 18.8 µM (inactive).

And the GI50 (T47D)?
The GI50 was 15.6 µM (inactive).

And the GI50 (UACC-257)?
Its GI50 is 24.8 µM (inactive).

What about the GI50 (CAKI-1) of the same compound?
Its GI50 is 14.6 µM (inactive).

And the GI50 (UACC-62)?
The GI50 was 23.9 µM (inactive).

And the GI50 (SF-539)?
Its GI50 is 4.69 µM (inactive).

And the GI50 (HCT-116)?
The GI50 was 16 µM (inactive).

What about the GI50 (HOP-62) of the same compound?
The GI50 was 9.93 µM (inactive).

And the GI50 (MCF7)?
Its GI50 is 19.6 µM (inactive).

What about the GI50 (MDA-MB-231) of the same compound?
The GI50 was 15.7 µM (inactive).

What about the GI50 (HOP-92) of the same compound?
Its GI50 is 17.5 µM (inactive).

And the GI50 (M14)?
The GI50 was 15.7 µM (inactive).

And the GI50 (OVCAR-5)?
The GI50 was 16.9 µM (inactive).

What about the GI50 (MDA-N) of the same compound?
The GI50 was 15.7 µM (inactive).

What about the GI50 (A498) of the same compound?
Its GI50 is 18.2 µM (inactive).

What about the GI50 (U-251) of the same compound?
The GI50 was 16.1 µM (inactive).

And the GI50 (KM12)?
Its GI50 is 15.9 µM (inactive).

What about the GI50 (TK-10) of the same compound?
Its GI50 is 16.5 µM (inactive).

What about the GI50 (SK-MEL-2) of the same compound?
The GI50 was > 100 µM (inactive).

With `C[C@H](CCCOS(C)(=O)=O)[C@H]1CC[C@H]2[C@@H]3CC[C@@H]4C[C@H](OS(C)(=O)=O)CC[C@]4(C)[C@H]3CC[C@]12C` as the compound, how does the GI50 (SK-MEL-5) read?
The GI50 was 29.8 µM (inactive).

What about the GI50 (MOLT-4) of the same compound?
The GI50 was > 100 µM (inactive).

And the GI50 (COLO 205)?
Its GI50 is > 100 µM (inactive).

And the GI50 (SF-268)?
Its GI50 is 27 µM (inactive).

What about the GI50 (Hs-578T) of the same compound?
Its GI50 is 24.4 µM (inactive).

What about the GI50 (ACHN) of the same compound?
The GI50 was 15.6 µM (inactive).

What about the GI50 (NCI-H226) of the same compound?
The GI50 was 17.5 µM (inactive).

And the GI50 (SR)?
The GI50 was 19.2 µM (inactive).

And the GI50 (Malme-3M)?
Its GI50 is 15.2 µM (inactive).

What about the GI50 (CCRF-CEM) of the same compound?
Its GI50 is > 100 µM (inactive).

And the GI50 (RPMI-8226)?
The GI50 was 17.1 µM (inactive).

And the GI50 (NCI-H460)?
The GI50 was 30.5 µM (inactive).

And the GI50 (786-0)?
The GI50 was 31 µM (inactive).

And the GI50 (PC-3)?
Its GI50 is 20.6 µM (inactive).

What about the GI50 (DU-145) of the same compound?
Its GI50 is 27 µM (inactive).

What about the GI50 (HCT-15) of the same compound?
The GI50 was 66.8 µM.

And the GI50 (OVCAR-8)?
The GI50 was 14.5 µM (inactive).

And the GI50 (K562)?
The GI50 was > 100 µM (inactive).

And the GI50 (IGROV-1)?
The GI50 was 30.1 µM (inactive).

And the GI50 (SK-MEL-28)?
Its GI50 is > 100 µM (inactive).

And the GI50 (A549)?
The GI50 was 17 µM (inactive).

What about the GI50 (SNB-19) of the same compound?
The GI50 was 27.5 µM (inactive).

What about the GI50 (EKVX) of the same compound?
The GI50 was 28.2 µM (inactive).

And the GI50 (HT-29)?
Its GI50 is 31.8 µM (inactive).

And the GI50 (MDA-MB-435)?
Its GI50 is 20.5 µM (inactive).

And the GI50 (RXF 393)?
Its GI50 is 52 µM (inactive).

What about the GI50 (LOX IMVI) of the same compound?
Its GI50 is 31.7 µM (inactive).

And the GI50 (OVCAR-3)?
The GI50 was 21.4 µM (inactive).

And the GI50 (NCI-H522)?
The GI50 was 29.7 µM (inactive).

What about the GI50 (SNB-75) of the same compound?
The GI50 was 31.8 µM (inactive).

And the GI50 (SW-620)?
Its GI50 is 56 µM (inactive).

And the GI50 (UO-31)?
Its GI50 is 34 µM (inactive).

What about the GI50 (SK-OV-3) of the same compound?
Its GI50 is 20.3 µM (inactive).

What about the GI50 (NCI/ADR-RES) of the same compound?
Its GI50 is 26.7 µM (inactive).

What about the GI50 (BT-549) of the same compound?
Its GI50 is 36.8 µM (inactive).

And the GI50 (OVCAR-4)?
Its GI50 is 27.9 µM (inactive).

What about the GI50 (NCI-H23) of the same compound?
The GI50 was 16.6 µM (inactive).

And the GI50 (SF-295)?
The GI50 was 37.5 µM (inactive).

What about the GI50 (SN12C) of the same compound?
Its GI50 is 16.7 µM (inactive).

And the GI50 (T47D)?
The GI50 was 24.8 µM (inactive).

What about the GI50 (UACC-257) of the same compound?
Its GI50 is 46.7 µM (inactive).

What about the GI50 (CAKI-1) of the same compound?
The GI50 was 11.6 µM (inactive).

What about the GI50 (UACC-62) of the same compound?
Its GI50 is 22.8 µM (inactive).

And the GI50 (SF-539)?
The GI50 was 21 µM (inactive).

And the GI50 (HCT-116)?
The GI50 was 29.5 µM (inactive).

What about the GI50 (HOP-62) of the same compound?
Its GI50 is 22.5 µM (inactive).

And the GI50 (MCF7)?
The GI50 was 26.4 µM (inactive).

And the GI50 (MDA-MB-231)?
Its GI50 is 13.8 µM (inactive).

And the GI50 (HOP-92)?
The GI50 was 0.118 µM (active).

What about the GI50 (M14) of the same compound?
Its GI50 is 90.4 µM (inactive).

And the GI50 (OVCAR-5)?
Its GI50 is 39.3 µM (inactive).

And the GI50 (A498)?
The GI50 was 22.3 µM (inactive).

What about the GI50 (U-251) of the same compound?
Its GI50 is 15.9 µM (inactive).

What about the GI50 (KM12) of the same compound?
Its GI50 is 29.2 µM (inactive).

What about the GI50 (TK-10) of the same compound?
The GI50 was 15.7 µM (inactive).

And the GI50 (SK-MEL-2)?
The GI50 was 60.1 µM (inactive).

Reference: ChEMBL document CHEMBL1201862, “PubChem BioAssay data set” (2004)
